Patent US11053204B2, “Pyrimidinyloxy benzene derivatives as herbicides” (FMC Corporation, priority 2015, dated 2021)

Tests used:
Assay type in all cases: in vivo
[1] = system: Italian ryegrass (Lolium multiflorum); assay: Test A postemergence, visual injury rating; conditions: Lolium multiflorum, post-emergence, 240 h, 0 is no effect, 100 is complete control, read-out: Ryegrass, Italian plant response rating (0 to 100 scale)
Procedure, shortened: (§1)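 Scoring: eye-based comparison with untreated controls, 0 for no effect through 100 for complete control, at about day 10. Treatments: directed soil spray preemergence; foliar spray postemergence on 2–10 cm plants at the one- to two-leaf stage. Medium: loam soil with sand.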

[2] = system: barnyardgrass (Echinochloa crus-galli); assay: Test A postemergence, visual injury rating; conditions: Echinochloa crus-galli, post-emergence, 240 h, 0 is no effect, 100 is complete control, read-out: Barnyardgrass plant response rating (0 to 100 scale)
Procedure, shortened: as §1

[3] = system: blackgrass (Alopecurus myosuroides); assay: Test A postemergence, visual injury rating; conditions: Alopecurus myosuroides, post-emergence, 240 h, 0 is no effect, 100 is complete control, read-out: Blackgrass plant response rating (0 to 100 scale)
Procedure, shortened: as §1

corn (Zea mays) = assay: Test A postemergence, visual injury rating; conditions: Zea mays, post-emergence, 240 h, 0 is no effect, 100 is complete control, read-out: Corn plant response rating (0 to 100 scale)
Procedure, shortened: as §1

[4] = system: galium (catchweed bedstraw, Galium aparine); assay: Test A postemergence, visual injury rating; conditions: Galium, post-emergence, 240 h, 0 is no effect, 100 is complete control, read-out: Galium plant response rating (0 to 100 scale)
Procedure, shortened: as §1

[5] = system: giant foxtail (Setaria faberii); assay: Test A postemergence, visual injury rating; conditions: Setaria faberi, post-emergence, 240 h, 0 is no effect, 100 is complete control, read-out: Foxtail, Giant plant response rating (0 to 100 scale)
Procedure, shortened: as §1

kochia (Kochia scoparia) = assay: Test A postemergence, visual injury rating; conditions: Bassia scoparia, post-emergence, 240 h, 0 is no effect, 100 is complete control, read-out: Kochia plant response rating (0 to 100 scale)
Procedure, shortened: as §1

[6] = system: pigweed (Amaranthus retroflexus); assay: Test A postemergence, visual injury rating; conditions: Amaranthus retroflexus, post-emergence, 240 h, 0 is no effect, 100 is complete control, read-out: Pigweed plant response rating (0 to 100 scale)
Procedure, shortened: as §1

[7] = system: ragweed (common ragweed, Ambrosia elatior); assay: Test A postemergence, visual injury rating; conditions: Ambrosia artemisiifolia, post-emergence, 240 h, 0 is no effect, 100 is complete control, read-out: Ragweed plant response rating (0 to 100 scale)
Procedure, shortened: as §1

[8] = system: wheat (Triticum aestivum); assay: Test A postemergence, visual injury rating; conditions: Triticum aestivum, post-emergence, 240 h, 0 is no effect, 100 is complete control, read-out: Wheat plant response rating (0 to 100 scale)
Procedure, shortened: as §1

[9] = system: chickweed (common chickweed, Stellaria media); assay: Test C postemergence, plant response rating; conditions: Stellaria media, post-emergence
Procedure, shortened: (§2)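 Visual injury score, 0 = no effect, 100 = complete control, assigned against untreated controls after 13 to 15 d in the greenhouse. Compounds were applied in a surfactant-containing non-phytotoxic solvent mix, preemergence to seeded loam/sand or silt loam soil, or postemergence to 1- to 4-leaf plants (2 to 18 cm).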

[10] = system: foxtail, giant (giant foxtail, Setaria faberii); assay: Test C postemergence, plant response rating; conditions: Setaria faberi, post-emergence
Procedure, shortened: as §2

[11] = system: lambsquarters (Chenopodium album); assay: Test C postemergence, plant response rating; conditions: Chenopodium album, post-emergence
Procedure, shortened: as §2

[12] = system: oat, wild (wild oat Avena fatua); assay: Test C postemergence, plant response rating; conditions: Avena fatua, post-emergence
Procedure, shortened: as §2

[13] = system: ragweed (common ragweed, Ambrosia elatior); assay: Test C postemergence, plant response rating; conditions: Ambrosia artemisiifolia, post-emergence
Procedure, shortened: as §2

[14] = system: ryegrass, Italian (Italian ryegrass, Lolium multiflorum); assay: Test C postemergence, plant response rating; conditions: Lolium multiflorum, post-emergence
Procedure, shortened: as §2

soybean (Glycine max) = assay: Test C postemergence, plant response rating; conditions: Glycine max, post-emergence
Procedure, shortened: as §2

[15] = system: velvetleaf (Abutilon theophrasti); assay: Test C postemergence, plant response rating; conditions: Abutilon theophrasti, post-emergence
Procedure, shortened: as §2

[16] = system: waterhemp (common waterhemp, Amaranthus rudis); assay: Test C postemergence, plant response rating; conditions: for Plant response rating, Waterhemp: scale 0 to 100; for Waterhemp plant response rating: scale 0 to 100 (0 no effect, 100 complete control)
Procedure, shortened: as §2

[17] = 62 g ai/ha, scale 0 to 100 (0 no effect, 100 complete control)
[18] = 125 g ai/ha, scale 0 to 100 (0 no effect, 100 complete control)

## C=CCOC(=O)c1c(Br)cccc1Oc1ncc(Cl)cn1 [Compound 22, 2-propen-1-yl 2-bromo-6-[(5-chloro-2-pyrimidinyl)oxy]benzoate]
[1]; 125 g ai/ha
  pest or weed control at 125 g/ha: 0%
[1]; 500 g ai/ha
  pest or weed control at 500 g/ha: 60%
[2]; 125 g ai/ha
  pest or weed control at 125 g/ha: 60%
[2]; 500 g ai/ha
  pest or weed control at 500 g/ha: 100%
[3]; 125 g ai/ha
  pest or weed control at 125 g/ha: 60%
[3]; 500 g ai/ha
  pest or weed control at 500 g/ha: 90%
Corn (Zea mays); 125 g ai/ha
  plant injury at 125 g/ha: 30%
Corn (Zea mays); 500 g ai/ha
  plant injury at 500 g/ha: 50%
[4]; 125 g ai/ha
  pest or weed control at 125 g/ha: 30%
[4]; 500 g ai/ha
  pest or weed control at 500 g/ha: 90%
[5]; 125 g ai/ha
  pest or weed control at 125 g/ha: 80%
[5]; 500 g ai/ha
  pest or weed control at 500 g/ha: 100%
Kochia (Kochia scoparia); 125 g ai/ha
  pest or weed control at 125 g/ha: 90%
Kochia (Kochia scoparia); 500 g ai/ha
  pest or weed control at 500 g/ha: 100%
[6]; 125 g ai/ha
  pest or weed control at 125 g/ha: 100%
[6]; 500 g ai/ha
  pest or weed control at 500 g/ha: 100%
[7]; 125 g ai/ha
  pest or weed control at 125 g/ha: 0%
[7]; 500 g ai/ha
  pest or weed control at 500 g/ha: 30%
[8]; 125 g ai/ha
  plant injury at 125 g/ha: 0%
[8]; 500 g ai/ha
  plant injury at 500 g/ha: 30%
[9]; 16 g ai/ha, scale 0 to 100
  pest or weed control at 16 g/ha: 20%
[9]; 31 g ai/ha, scale 0 to 100
  pest or weed control at 31 g/ha: 60%
[9]; [17]
  pest or weed control at 62 g/ha: 65%
[9]; [18]
  pest or weed control at 125 g/ha: 60%
[10]; 16 g ai/ha, scale 0 to 100
  pest or weed control at 16 g/ha: 10%
[10]; 31 g ai/ha, scale 0 to 100
  pest or weed control at 31 g/ha: 10%
[10]; [17]
  pest or weed control at 62 g/ha: 15%
[10]; [18]
  pest or weed control at 125 g/ha: 25%
[11]; 16 g ai/ha, scale 0 to 100
  pest or weed control at 16 g/ha: 65%
[11]; 31 g ai/ha, scale 0 to 100
  pest or weed control at 31 g/ha: 70%
[11]; [17]
  pest or weed control at 62 g/ha: 70%
[11]; [18]
  pest or weed control at 125 g/ha: 75%
[12]; 16 g ai/ha, scale 0 to 100
  pest or weed control at 16 g/ha: 0%
[12]; 31 g ai/ha, scale 0 to 100
  pest or weed control at 31 g/ha: 0%
[12]; [17]
  pest or weed control at 62 g/ha: 0%
[12]; [18]
  pest or weed control at 125 g/ha: 5%
[13]; 16 g ai/ha, scale 0 to 100
  pest or weed control at 16 g/ha: 5%
[13]; 31 g ai/ha, scale 0 to 100
  pest or weed control at 31 g/ha: 35%
[13]; [17]
  pest or weed control at 62 g/ha: 50%
[13]; [18]
  pest or weed control at 125 g/ha: 50%
[14]; 16 g ai/ha, scale 0 to 100
  pest or weed control at 16 g/ha: 0%
[14]; 31 g ai/ha, scale 0 to 100
  pest or weed control at 31 g/ha: 0%
[14]; [17]
  pest or weed control at 62 g/ha: 0%
[14]; [18]
  pest or weed control at 125 g/ha: 5%
Soybean (Glycine max); 16 g ai/ha, scale 0 to 100
  plant injury at 16 g/ha: 40%
Soybean (Glycine max); 31 g ai/ha, scale 0 to 100
  plant injury at 31 g/ha: 40%
Soybean (Glycine max); [17]
  plant injury at 62 g/ha: 35%
Soybean (Glycine max); [18]
  plant injury at 125 g/ha: 75%
[15]; 16 g ai/ha, scale 0 to 100
  pest or weed control at 16 g/ha: 50%
[15]; 31 g ai/ha, scale 0 to 100
  pest or weed control at 31 g/ha: 40%
[15]; 62 g ai/ha, scale 0 to 100 (0 no effect, 100 complete control), read-out: Velvetleaf plant response rating
  pest or weed control at 62 g/ha: 55%
[15]; [18]
  pest or weed control at 125 g/ha: 85%
[16]; 16 g ai/ha
  Plant response rating, Waterhemp: 75
[16]; 31 g ai/ha
  Plant response rating, Waterhemp: 75
[16]; 62 g ai/ha
  Waterhemp plant response rating: 85
[16]; 125 g ai/ha
  Waterhemp plant response rating: 80
